Assay results from patent US20230286968A1, “ARYLOXAZOLO SPIRAL RING DERIVATIVES FOR THE TREATMENT AND PROPHYLAXIS OF HEPATITIS B VIRUS INFECTION” (Hoffmann-La Roche Inc., priority 2020, published 2023).
Where two headings read alike, the source gives them in different places.

How the values were obtained:
[1] = test system: HBsAg; assay: PHH natural infection assay, HBsAg (alphalisa); type: cell-based, HBV
Protocol: (§1) Detailed procedures regarding primary human hepatocyte (PHH) HBV natural infection assay are described as below. One tube of frozen PHH (10 million cells) is thawed in 37° C. water bath and then transferred to 20 mL of PHH thawing medium (Sigma, InVitroGRO HT Medium, Cat. S03319) with gently mixing. The cells were then centrifuged at […] for 5 min, the supernatant was discarded and the tube was refilled with 25 mL of PHH plating medium (Sigma, InVitroGRO CP Medium, Cat. S03317). The tube was shaken very gently to re-suspend all cells, and then 50 μL of cells were transferred to each well 384-well collagen I coated plate with appropriate liquid handling equipment, e.g. Integra VIAFLO384 or Agilent Bravo. The cells were then cultured for 24 hours in a cell incubator. For HBV infection, after PHH attachment on the culture plate, the plating medium was removed and replenished with PHH culture medium containing HBV virus. The PHH culture medium was prepared with Dulbecco's Modified Eagle Medium (DMEM)/F12 (1:1 in volume ratio) containing 10% fetal bovine serum (Gibco, Cat. 10099141), 5 ng/mL human epidermal growth factor (Gibco, Cat.PHG0311L), 20 ng/mL dexamethasone (Sigma, Cat.D4902-100 mg), 250 ng/mL human recombinant insulin (Gibco, Cat.41400045) and 100 U/mL penicillin. HBV virus at 200 genome equivalent (GE) per cell with 4% PEG8000 (Sigma, Cat.P1458) containing culture medium were added to the PHH culture medium for infection. The cells were then cultured for 24 hours in cell incubator. Then the cell culture supernatant was removed. The HBV-infected PHH were cultured with sandwich culture method with PHH culture medium containing […] and 0.25 mg/mL matrix gel for 72 hours. The supernatant was then refreshed with PHH culture medium containing different concentrations of testing compounds for two times with 72-hour interval. At the end of treatment, the supernatant was collected for viral markers measurements, including HBsAg, HBeAg, HBV DNA and cytotoxicity. HBsAg and HBeAg were detected using alphalisa method using their specific antibodies. For HBV DNA detection, HBV DNA Quantitative Fluorescence Diagnostic Kit (Sansure Biotech Inc.) was used following the manufacture's protocol. Cytotoxicity was determined using Cell Counting Kit-8 (CCK8, Dojindo Molecular Technologies, Inc.).
(§2) The compounds of the present invention were tested for their capacity to inhibit HBsAg and HBeAg as described herein.

[2] = test system: HBeAg; assay: PHH natural infection assay, HBeAg (alphalisa); type: cell-based, HBV
Protocol: as §1, §2

[3] = Cytotoxicity in PHH natural infection assay (Cell Counting Kit-8); type: cell-based; settings: HBV-infected primary human hepatocytes, CCK8
Protocol: as §1

[4] = Hepatitis B virus, Hepatocyte, read-out: HBsAg IC50, HBV-infected primary human hepatocytes, supernatant, alphalisa
[5] = Hepatitis B virus, Hepatocyte, read-out: HBeAg IC50, HBV-infected primary human hepatocytes, supernatant, alphalisa
[6] = read-out: HBsAg IC50, HBV-infected primary human hepatocytes, supernatant, alphalisa
[7] = read-out: HBeAg IC50, HBV-infected primary human hepatocytes, supernatant, alphalisa

| Compound | IC50 [1, 4] | IC50 [2, 5] | CC50 at 144 h [3] | IC50 [1, 6] | IC50 [2, 7] |
| --- | --- | --- | --- | --- | --- |
| NS(=O)(=O)c1cc(C(=O)NC2CC3(C2)CC(c2nc4cc(Cl)ccc4o2)C3)ccn1 (stereo not drawn) [Example 19, N-[6-(5-chloro-1,3-benzoxazol-2-yl)spiro[3.3]heptan-2-yl]-2-sulfamoyl-pyridine-4-carboxamide] | 2.25 µM | 1.24 µM | > 10 µM | – | – |
| O=C(NC1CC2(C1)CC(c1nc3cc(Cl)ccc3o1)C2)c1ccnc(N2CCS(=O)(=O)CC2)c1 (stereo not drawn) [Example 91, N-[6-(5-chloro-1,3-benzoxazol-2-yl)spiro[3.3]heptan-2-yl]-2-(1,1-dioxo-1,4-thiazinan-4-yl)pyridine-4-carboxamide] | 1.1 µM | 0.95 µM | > 10 µM | – | – |
| O=C(NC1CC2(C1)CC(c1nc3cc(Cl)ccc3o1)C2)N1CCCC1 (stereo not drawn) [Example 66, N-[6-(5-chloro-1,3-benzoxazol-2-yl)spiro[3.3]heptan-2-yl]pyrrolidine-1-carboxamide] | 2.5 µM | 1.97 µM | 92.1 µM | – | – |
| O=C(NC1CC2(C1)CC(c1nc3cc(Cl)ccc3o1)C2)c1ccncc1 (stereo not drawn) [Example 3, N-[6-(5-chloro-1,3-benzoxazol-2-yl)spiro[3.3]heptan-2-yl]pyridine-4-carboxamide] | 8.19 µM | 4.39 µM | > 100 µM | – | – |
| O=C(CN1CCCCS1(=O)=O)NC1CC2(C1)CC(c1nc3cc(Cl)ccc3o1)C2 (stereo not drawn) [Example 56, N-[6-(5-chloro-1,3-benzoxazol-2-yl)spiro[3.3]heptan-2-yl]-2-(1,1-dioxothiazinan-2-yl)acetamide] | 2.29 µM | 2.06 µM | > 100 µM | – | – |
| O=C(CC1CCCS1(=O)=O)NC1CC2(C1)CC(c1nc3cc(Cl)ccc3o1)C2 (stereo not drawn) [Example 47, N-[6-(5-chloro-1,3-benzoxazol-2-yl)spiro[3.3]heptan-2-yl]-2-(1,1-dioxothiolan-2-yl)acetamide] | 3.46 µM | 2.1 µM | > 100 µM | – | – |
| [H][C@]1(NC(=O)c2ccnc(S(C)(=O)=O)c2)C[C@]2(C1)C[C@]([H])(c1nc3cc(Cl)ccc3o1)C2 (single isomer, unassigned) [Example 87-a, (Ra)—N-[6-(5-chloro-1,3-benzoxazol-2-yl)spiro[3.3]heptan-2-yl]-2-methylsulfonyl-pyridine-4-carboxamide] | – | – | > 10 µM | 0.2 µM | 0.22 µM |
| CS(=O)(=O)N1CC(CC(=O)NC2CC3(C2)CC(c2nc4cc(Cl)ccc4o2)C3)C1 (stereo not drawn) [Example 77, N-[6-(5-chloro-1,3-benzoxazol-2-yl)spiro[3.3]heptan-2-yl]-2-(1-methylsulfonylazetidin-3-yl)acetamide] | 7.08 µM | 4.35 µM | > 10 µM | – | – |
| O=C1CCC(CC(=O)NC2CC3(C2)CC(c2nc4cc(Cl)ccc4o2)C3)N1 (stereo not drawn) [Example 37, N-[6-(5-chloro-1,3-benzoxazol-2-yl)spiro[3.3]heptan-2-yl]-2-(5-oxopyrrolidin-2-yl)acetamide] | 6 µM | 3.75 µM | > 10 µM | – | – |
| O=C(NC1CC2(C1)CC(c1nc3cc(Cl)ccc3o1)C2)c1ccnc(N2CCOCC2)c1 (stereo not drawn) [Example 9, N-[6-(5-chloro-1,3-benzoxazol-2-yl)spiro[3.3]heptan-2-yl]-2-morpholino-pyridine-4-carboxamide] | 3.83 µM | 4.37 µM | > 10 µM | – | – |
| CN(C(=O)c1ccnc(S(C)(=O)=O)c1)C1CC2(CC(c3nc4cc(Cl)ccc4o3)C2)C1 (stereo not drawn) [Example 92, N-[6-(5-chloro-1,3-benzoxazol-2-yl)spiro[3.3]heptan-2-yl]-N-methyl-2-methylsulfonyl-pyridine-4-carboxamide] | 3.05 µM | 2.02 µM | > 10 µM | – | – |
| Cc1cc(C(=O)NC2CC3(C2)CC(c2nc4cc(Cl)ccc4o2)C3)ccn1 (stereo not drawn) [Example 4, N-[6-(5-chloro-1,3-benzoxazol-2-yl)spiro[3.3]heptan-2-yl]-2-methyl-pyridine-4-carboxamide] | 5.51 µM | 4.59 µM | > 10 µM | – | – |
| CNc1cc(C(=O)NC2CC3(C2)CC(c2nc4cc(Cl)ccc4o2)C3)ccn1 (stereo not drawn) [Example 97, N-[6-(5-chloro-1,3-benzoxazol-2-yl)spiro[3.3]heptan-2-yl]-2-(methylamino)pyridine-4-carboxamide] | 7.05 µM | 5.97 µM | > 10 µM | – | – |
| CC(C)N(C)c1cc(C(=O)NC2CC3(C2)CC(c2nc4cc(Cl)ccc4o2)C3)ccn1 (stereo not drawn) [Example 12, N-[6-(5-chloro-1,3-benzoxazol-2-yl)spiro[3.3]heptan-2-yl]-2-[isopropyl(methyl)amino]pyridine-4-carboxamide] | 2.03 µM | 1.55 µM | > 10 µM | – | – |
| CC(=O)N1CCC(C(=O)NC2CC3(C2)CC(c2nc4cc(Cl)ccc4o2)C3)C1 (stereo not drawn) [Example 73, 1-acetyl-N-[6-(5-chloro-1,3-benzoxazol-2-yl)spiro[3.3]heptan-2-yl]pyrrolidine-3-carboxamide] | 9.05 µM | 6.39 µM | > 10 µM | – | – |
| O=C(NC1CC2(C1)CC(c1nc3cc(Cl)ccc3o1)C2)C1CCS(=O)(=O)N1 (stereo not drawn) [Example 45, N-[6-(5-chloro-1,3-benzoxazol-2-yl)spiro[3.3]heptan-2-yl]-1,1-dioxo-1,2-thiazolidine-3-carboxamide] | 2.41 µM | 1.36 µM | > 100 µM | – | – |
| O=C(NC1CC2(C1)CC(c1nc3cc(Cl)ccc3o1)C2)C1CCS(=O)(=O)C1 (stereo not drawn) [Example 40, N-[6-(5-chloro-1,3-benzoxazol-2-yl)spiro[3.3]heptan-2-yl]-1,1-dioxo-thiolane-3-carboxamide] | 5.72 µM | 5.09 µM | > 100 µM | – | – |
| O=C(NC1CC2(C1)CC(c1nc3cc(C(F)(F)F)ccc3o1)C2)C1CCS(=O)(=O)CC1 (stereo not drawn) [Example 57, 1,1-dioxo-N-[6-[5-(trifluoromethyl)-1,3-benzoxazol-2-yl]spiro[3.3]heptan-2-yl]thiane-4-carboxamide] | 4.47 µM | 3.59 µM | > 100 µM | – | – |
| CCN(C)c1cc(C(=O)NC2CC3(C2)CC(c2nc4cc(Cl)ccc4o2)C3)ccn1 (stereo not drawn) [Example 7, N-[6-(5-chloro-1,3-benzoxazol-2-yl)spiro[3.3]heptan-2-yl]-2-[ethyl(methyl)amino]pyridine-4-carboxamide] | 4.19 µM | 4.34 µM | > 10 µM | – | – |
| NS(=O)(=O)CCC(=O)NC1CC2(C1)CC(c1nc3cc(Cl)ccc3o1)C2 (stereo not drawn) [Example 38, N-[6-(5-chloro-1,3-benzoxazol-2-yl)spiro[3.3]heptan-2-yl]-3-sulfamoyl-propanamide] | 9.48 µM | 5.49 µM | > 10 µM | – | – |
| [H][C@]1(NC(=O)C2CCS(=O)(=O)CC2)C[C@@]2(C1)C[C@]([H])(c1nc3cc(Cl)ccc3o1)C2 (single isomer, unassigned) [Example 82b, (Sa)—N-[6-(5-chloro-1,3-benzoxazol-2-yl)spiro[3.3]heptan-2-yl]-1,1-dioxo-thiane-4-carboxamide] | – | – | > 100 µM | 2.04 µM | 1.47 µM |
| O=C(NC1CC2(C1)CC(c1nc3cc(Cl)ccc3o1)C2)c1ccccn1 (stereo not drawn) [Example 1, N-[6-(5-chloro-1,3-benzoxazol-2-yl)spiro[3.3]heptan-2-yl]pyridine-2-carboxamide] | 9.75 µM | 7.89 µM | 74.8 µM | – | – |
| O=C(NC1CC2(C1)CC(c1nc3cc(Cl)ccc3o1)C2)C1CN(Cc2ccccc2)S(=O)(=O)C1 (stereo not drawn) [Example 44, 2-benzyl-N-[6-(5-chloro-1,3-benzoxazol-2-yl)spiro[3.3]heptan-2-yl]-1,1-dioxo-1,2-thiazolidine-4-carboxamide] | 4.44 µM | 4.6 µM | > 10 µM | – | – |
| CC(C)NC(=O)NC1CC2(C1)CC(c1nc3cc(Cl)ccc3o1)C2 (stereo not drawn) [Example 61, 1-[6-(5-chloro-1,3-benzoxazol-2-yl)spiro[3.3]heptan-2-yl]-3-isopropyl-urea] | 4.71 µM | 3.82 µM | > 100 µM | – | – |
| O=C(NC1CC2(C1)CC(c1nc3cc(Cl)ccc3o1)C2)C1CCN(C(=O)C2CCC2)C1 (stereo not drawn) [Example 75, N-[6-(5-chloro-1,3-benzoxazol-2-yl)spiro[3.3]heptan-2-yl]-1-(cyclobutanecarbonyl)pyrrolidine-3-carboxamide] | 9.58 µM | 8.96 µM | > 10 µM | – | – |
